In BigSolDB 2.1:

OC[C@@H](O)CN1CCN(c2ccccc2)CC1
solubility (mole fraction)
Conditions	283.1 K	288.1 K	293.1 K	298.1 K	303.1 K	308.1 K	313.1 K	318.1 K	323.1 K
in ethyl acetate	0.000375	0.000529	0.000655	0.000809	0.00104	0.00132	0.00172	0.00229	0.00299
in isobutanol	0.000871	0.00116	0.00147	0.00194	0.00245	0.00311	0.00397	0.0052	0.00686
in isopentanol	0.000649	0.000914	0.00126	0.00165	0.00209	0.00274	0.00358	0.00472	0.00611
in isopropanol	0.000146	0.000195	0.000245	0.000302	0.000371	0.000462	0.00057	0.000705	0.000852
in isopropyl acetate	0.000293	0.000371	0.000484	0.000609	0.000798	0.00102	0.00132	0.00172	0.00223
in n-butanol	0.000527	0.00072	0.000956	0.00131	0.00175	0.00239	0.00318	0.00424	0.00579
in n-butyl acetate	0.00032	0.000417	0.000551	0.000714	0.000937	0.00122	0.00156	0.00207	0.00266
in n-heptanol	0.000771	0.00104	0.00135	0.0018	0.0023	0.00297	0.00381	0.00492	0.00628
in n-hexanol	0.000816	0.00108	0.00139	0.00181	0.00235	0.00304	0.00393	0.00503	0.00651
in n-pentanol	0.000634	0.000945	0.00128	0.00163	0.00217	0.00285	0.00372	0.00493	0.00646
in n-pentyl acetate	0.000316	0.000391	0.000525	0.000678	0.000888	0.00114	0.0015	0.00194	0.0025
in n-propanol	0.000721	0.000943	0.0012	0.00157	0.00207	0.00277	0.00369	0.00501	0.00656
in n-propyl acetate	0.000351	0.000469	0.000613	0.000803	0.00103	0.00132	0.00173	0.00222	0.00293
